Test results published in article PMC7450941, “Establishing a sensitive fluorescence-based quantification method for cyclic nucleotides” (BMC Biotechnology, 2020).

Target: T1, Epac1-camps-His6 (Homo sapiens, UniProt O95398)
T1 construct: made in house; host or cells: E. coli BL21(DE3)-CodonPlus-RIL / BL21(DE3)-pLysS, pET11a
T1 sequence (O95398 199-357 limits assumed): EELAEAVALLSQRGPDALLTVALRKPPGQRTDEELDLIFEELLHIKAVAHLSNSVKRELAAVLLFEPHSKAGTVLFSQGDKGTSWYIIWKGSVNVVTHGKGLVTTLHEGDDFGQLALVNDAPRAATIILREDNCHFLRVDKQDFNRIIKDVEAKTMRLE
Assay: cell-free FRET assay with purified Epac1-camps-His6 in 96 multi-well plates (EYFP/ECFP ratio R/R0)
Type: biochemical
Conditions: 96 MWP, plate reader
Experimental: To assess the functionality of the purified Epac1-camps-His6 protein, the protein was diluted to 0.7 μM and 90 μl of this solution was added to each well of a 96 multi well plate (MWP). Fluorescence emission in each well was measured in a plate reader. Excitation was at 430 nm and emission was recorded at 475 nm (ECFP) and 530 nm (EYFP). […] The final volume in each well was 100 μl, and final concentrations of cyclic nucleotides ranged from 10^− 9 - 10^− 4 M. Incubation of the sensor protein with its ligands was for 30 min. at room temperature. […] Normalized data were plotted against cyclic nucleotide concentrations and EC50 values were calculated. […] Mean values with standard deviations were obtained from four-fold determinations for each cyclic nucleotide.
Purified Epac1-camps-His6 protein was diluted to a concentration of 0.7 μM in IS buffer and 90 μl of the sample was added to each well of a 96 multi well plate. Excitation was at 430 nm and emission was recorded at 475 nm (ECFP) and 530 nm (EYFP). […] The final volume was 100 μl and final concentrations of cyclic nucleotides ranged from 10^− 9 - 10^− 4 M. The EYFP/ECFP ratio (R) for each well was calculated and normalized to the ratio of the basal fluorescence in the absence of cyclic nucleotides (R0). […] EC50 values were calculated with a four-parameter nonlinear regression using GraphPad Prism v5.04 […]

How did the EC50 turn out when `Nc1nc2c(ncn2[C@@H]2O[C@@H]3COP(=O)(O)O[C@H]3[C@H]2O)c(=O)[nH]1` [cGMP, cyclic guanosine 3′,5′-monophosphate] was run?
Its EC50 is 7.8 µM.
